Source: US20260285850A1, “SUBSTITUTED OXAZOLIDINONES AND IMIDAZOLINONES AS HERBICIDES” (FMC CORPORATION, priority 2023, published 2026)

Assays:
Assay type in all cases: in vivo
[1] = test system: barnyardgrass (Echinochloa crus-galli); assay: Test A preemergence soil spray, visual injury rating 0-100; conditions: 10 days, 0 = no effect, 100 = complete control
Summary of the method: (§1)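 Seeds sown in loam-sand blend got a preemergence directed soil spray, or emerged plants (2-10 cm, one- to two-leaf) got a postemergence spray, of compound in non-phytotoxic solvent with surfactant. After 10 days in greenhouse, injury rated visually versus untreated controls on a 0 (no effect) to 100 (complete control) scale.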

[2] = test system: blackgrass (Alopecurus myosuroides); assay: as above; conditions: 10 days, 0 = no effect, 100 = complete control
Summary of the method: as §1

corn (Zea mays) [3] = assay: as above; conditions: 10 days, 0 = no effect, 100 = complete control
Summary of the method: as §1

[4] = test system: green foxtail (Setaria viridis); assay: as above; conditions: 10 days, 0 = no effect, 100 = complete control
Summary of the method: as §1

kochia (Bassia scoparia) [5] = assay: as above; conditions: 10 days, 0 = no effect, 100 = complete control
Summary of the method: as §1

[6] = test system: oat, wild (wild oat, Avena fatua); assay: as above; conditions: 10 days, 0 = no effect, 100 = complete control
Summary of the method: as §1

[7] = test system: palmer (palmer amaranth, palmer pigweed, Amaranthus palmeri); assay: as above; conditions: 10 days, 0 = no effect, 100 = complete control
Summary of the method: as §1

[8] = test system: ragweed (common ragweed, Ambrosia artemisiifolia); assay: as above; conditions: 10 days, 0 = no effect, 100 = complete control
Summary of the method: as §1

soybean (Glycine max) [9] = assay: as above; conditions: 10 days, 0 = no effect, 100 = complete control
Summary of the method: as §1

[10] = test system: wheat (Triticum aestivum); assay: as above; conditions: 10 days, 0 = no effect, 100 = complete control
Summary of the method: as §1

[11] = test system: barnyardgrass (Echinochloa crus-galli); assay: Test A postemergence application, visual injury rating 0-100; conditions: 10 days
Summary of the method: as §1

[12] = test system: blackgrass (Alopecurus myosuroides); assay: as above; conditions: 10 days
Summary of the method: as §1

corn (Zea mays) [13] = assay: as above; conditions: 10 days
Summary of the method: as §1

[14] = test system: galium (catchweed bedstraw, Galium aparine); assay: as above; conditions: 10 days
Summary of the method: as §1

[15] = test system: green foxtail (Setaria viridis); assay: as above; conditions: 10 days
Summary of the method: as §1

[16] = test system: horseweed (Erigeron canadensis); assay: as above; conditions: 10 days
Summary of the method: as §1

kochia (Bassia scoparia) [17] = assay: as above; conditions: 10 days
Summary of the method: as §1

[18] = test system: oat, wild (wild oat, Avena fatua); assay: as above; conditions: 10 days
Summary of the method: as §1

[19] = test system: palmer (palmer amaranth, palmer pigweed, Amaranthus palmeri); assay: as above; conditions: 10 days
Summary of the method: as §1

[20] = test system: ragweed (common ragweed, Ambrosia artemisiifolia); assay: as above; conditions: 10 days
Summary of the method: as §1

[21] = test system: ryegrass, Italian (italian ryegrass, Lolium multiflorum); assay: as above; conditions: 10 days
Summary of the method: as §1

soybean (Glycine max) [22] = assay: as above; conditions: 10 days
Summary of the method: as §1

[23] = test system: wheat (Triticum aestivum); assay: as above; conditions: 10 days
Summary of the method: as §1

[24] = test system: barnyardgrass (Echinochloa crusgalli); assay: Test B flooded paddy test, visual plant response rating 0-100; conditions: 250 g ai/ha, Flood, applied to paddy water, evaluated after 13 days
Summary of the method: (§2)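 In this flooded assay, 2-leaf seedlings received compound through the water layer, kept at 3 cm over the soil. Plants were held 13 days in a greenhouse and then visually compared with control pots.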

[25] = test system: ducksalad (Heteranthera limosa); assay: as above; conditions: 250 g ai/ha, Flood, applied to paddy water, evaluated after 13 days
Summary of the method: as §2

rice (Oryza sativa) = assay: as above; conditions: 250 g ai/ha, Flood, applied to paddy water, evaluated after 13 days
Summary of the method: as §2

[26] = test system: sedge, umbrella (small-flower umbrella sedge, Cyperus difformis); assay: as above; conditions: 250 g ai/ha, Flood, applied to paddy water, evaluated after 13 days
Summary of the method: as §2

[27] = 31 g ai/ha, postemergence, 0 = no effect, 100 = complete control
[28] = Postemergence, 125 g ai/ha, 0 is no effect, 100 is complete control

CC(C)OC(=O)C1=CCC(NC(=O)C2(C)CN(c3cc(F)cc(F)c3)C(=O)O2)C1 (centres unmarked) [Compound 5]
Barnyardgrass plant response rating (0-100) ([1]; 31 g ai/ha): 0
Barnyardgrass plant response rating (0 to 100 scale) ([1]; 125 g ai/ha): 100
Blackgrass plant response rating (0-100) ([2]; 31 g ai/ha): 30
Blackgrass plant response rating (0 to 100 scale) ([2]; 125 g ai/ha): 40
Corn plant response rating (0-100) (corn (Zea mays) [3]; 31 g ai/ha): 0
Corn plant response rating (0 to 100 scale) (corn (Zea mays) [3]; 125 g ai/ha): 50
Foxtail, Green plant response rating (0-100) ([4]; 31 g ai/ha): 20
Foxtail, Green plant response rating (0 to 100 scale) ([4]; 125 g ai/ha): 100
Kochia plant response rating (0-100) (kochia (Bassia scoparia) [5]; 31 g ai/ha): 0
Kochia plant response rating (0 to 100 scale) (kochia (Bassia scoparia) [5]; 125 g ai/ha): 90
Oat, Wild plant response rating (0-100) ([6]; 31 g ai/ha): 20
Oat, Wild plant response rating (0 to 100 scale) ([6]; 125 g ai/ha): 90
Amaranth, Palmer plant response rating (0-100) ([7]; 31 g ai/ha): 20
Amaranth, Palmer plant response rating (0 to 100 scale) ([7]; 125 g ai/ha): 100
Ragweed plant response rating (0-100) ([8]; 31 g ai/ha): 0
Ragweed plant response rating (0 to 100 scale) ([8]; 125 g ai/ha): 0
Soybean plant response rating (0-100) (soybean (Glycine max) [9]; 31 g ai/ha): 0
Soybean plant response rating (0 to 100 scale) (soybean (Glycine max) [9]; 125 g ai/ha): 60
Wheat plant response rating (0-100) ([10]; 31 g ai/ha): 0
Wheat plant response rating (0 to 100 scale) ([10]; 125 g ai/ha): 80
Barnyardgrass plant response rating (0-100) [11, 27]: 100
Barnyardgrass plant response rating (0 to 100 scale) [11, 28]: 100
Blackgrass plant response rating (0-100) [12, 27]: 50
Blackgrass plant response rating (0 to 100 scale) [12, 28]: 90
Corn plant response rating (0-100) (corn (Zea mays) [13]; [27]): 60
Corn plant response rating (0 to 100 scale) (corn (Zea mays) [13]; [28]): 100
Galium plant response rating (0-100) [14, 27]: 80
Galium plant response rating (0 to 100 scale) [14, 28]: 80
Foxtail, Green plant response rating (0-100) [15, 27]: 30
Foxtail, Green plant response rating (0 to 100 scale) [15, 28]: 90
Horseweed plant response rating (0-100) [16, 27]: 10
Horseweed plant response rating (0 to 100 scale) [16, 28]: 50
Kochia plant response rating (0-100) (kochia (Bassia scoparia) [17]; [27]): 30
Kochia plant response rating (0 to 100 scale) (kochia (Bassia scoparia) [17]; [28]): 80
Oat, Wild plant response rating (0-100) [18, 27]: 90
Oat, Wild plant response rating (0 to 100 scale) [18, 28]: 90
Amaranth, Palmer plant response rating (0-100) [19, 27]: 40
Amaranth, Palmer / Pigweed, Palmer plant response rating (0 to 100 scale) [19, 28]: 50
Ragweed plant response rating (0-100) [20, 27]: 50
Ragweed plant response rating (0 to 100 scale) [20, 28]: 70
Ryegrass, Italian plant response rating (0-100) [21, 27]: 60
Ryegrass, Italian plant response rating (0 to 100 scale) [21, 28]: 90
Soybean plant response rating (0-100) (soybean (Glycine max) [22]; [27]): 60
Soybean plant response rating (0 to 100 scale) (soybean (Glycine max) [22]; [28]): 70
Wheat plant response rating (0-100) [23, 27]: 90
Wheat plant response rating (0 to 100 scale) [23, 28]: 90
Plant response rating, Barnyardgrass (0 to 100 scale, 0 is no effect and 100 is complete control) [24]: 65
Plant response rating, Ducksalad (0 to 100 scale, 0 is no effect and 100 is complete control) [25]: 80
Plant response rating, Rice (0 to 100 scale, 0 is no effect and 100 is complete control) (rice (Oryza sativa)): 20
Plant response rating, Sedge, Umbrella (0 to 100 scale, 0 is no effect and 100 is complete control) [26]: 95
